Results on two molecules are retold here after publication PMC12219900, “Mechanistic insights into Bcs1-mediated mitochondrial membrane translocation of the folded Rieske protein” (The EMBO Journal, 2025).

A word on the stoichiometry N: it is the number of molecules, sites or subunits per partner or assembly.

One data set deals with T1, Bcs1-ATPγS2-Rip1-FeS (Saccharomyces cerevisiae, UniProt P32839).
T1 construct: Bcs1 heptamer (His6-FLAG-3C, from yeast) preloaded with E. coli-expressed Rip1-FeS (aa 83-215; TwinStrep tag, 3C-treated; plasmid named Rip1 delta81); with Cytochrome b-c1 complex subunit Rieske, mitochondrial
T1 sequence (P32839 1-456): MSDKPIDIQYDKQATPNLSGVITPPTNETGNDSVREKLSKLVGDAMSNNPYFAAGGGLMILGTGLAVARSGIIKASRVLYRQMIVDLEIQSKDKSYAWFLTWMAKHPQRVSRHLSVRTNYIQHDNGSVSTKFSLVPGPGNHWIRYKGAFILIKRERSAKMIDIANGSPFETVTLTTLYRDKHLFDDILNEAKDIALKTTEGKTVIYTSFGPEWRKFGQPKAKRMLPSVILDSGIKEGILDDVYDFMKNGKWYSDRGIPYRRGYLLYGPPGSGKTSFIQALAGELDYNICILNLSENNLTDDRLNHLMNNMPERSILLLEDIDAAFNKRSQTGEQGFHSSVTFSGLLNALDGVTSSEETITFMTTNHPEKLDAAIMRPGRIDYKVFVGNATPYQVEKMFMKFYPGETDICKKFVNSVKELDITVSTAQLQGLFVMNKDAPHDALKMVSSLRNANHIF
T1 sequence (P08067 83-215 partner): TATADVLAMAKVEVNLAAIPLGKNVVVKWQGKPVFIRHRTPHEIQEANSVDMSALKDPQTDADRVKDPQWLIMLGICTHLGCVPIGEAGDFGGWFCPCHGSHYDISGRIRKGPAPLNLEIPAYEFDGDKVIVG
Put plainly: cryo-EM structure. The data set is classed as binding. The settings on record: Rip1-FeS added before 2 mM ATPγS, 2.5 mM MgCl2, pH 7.5, 25 °C; map only (EMD-51562).

In another data set the target is T2, yBcs1 (Bcs1 heptamer) (Saccharomyces cerevisiae, UniProt P32839).
T2 construct: full length 1-456, N-terminal 6xHis-FLAG-3C tag (cleavage not described), expressed in S. cerevisiae W303 bcs1delta, digitonin-solubilised, SEC in GDN, homoheptamer about 700 kDa on BN-PAGE
T2 sequence (P32839 1-456): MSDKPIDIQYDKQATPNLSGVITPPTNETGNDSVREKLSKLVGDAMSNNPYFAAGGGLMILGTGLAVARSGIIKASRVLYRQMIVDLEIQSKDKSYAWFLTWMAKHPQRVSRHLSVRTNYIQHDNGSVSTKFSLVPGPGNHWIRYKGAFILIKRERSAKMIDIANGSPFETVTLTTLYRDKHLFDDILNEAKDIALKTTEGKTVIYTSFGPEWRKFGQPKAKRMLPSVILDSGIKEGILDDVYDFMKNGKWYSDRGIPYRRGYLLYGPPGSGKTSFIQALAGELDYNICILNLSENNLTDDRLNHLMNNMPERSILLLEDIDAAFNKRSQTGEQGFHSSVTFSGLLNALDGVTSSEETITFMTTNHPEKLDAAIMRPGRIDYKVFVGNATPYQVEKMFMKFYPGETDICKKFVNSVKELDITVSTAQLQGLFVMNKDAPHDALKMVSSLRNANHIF
Put plainly: cryo-EM structure; BN-PAGE shift. The data set is classed as binding. The settings on record: 2 mM ATPγS, 2.5 mM MgCl2, pH 7.5, 25 °C; all seven AAA sites; two states ATPγS1 (9GSN) and ATPγS2 (9GU9).

Data set [1] concerns the molecule itself. Description: cryo-EM structure; Bcs1 first incubated with Rip1-FeS in BN-buffer with 2.5 mM MgCl2 for 10 min at 25 °C, then 2 mM ATPγS for 10 min; ATPγS2 state.

Regarding `Nc1ncnc2c1ncn2[C@@H]1O[C@H](COP(=O)(O)OP(=O)(O)OP(O)(O)=S)[C@@H](O)[C@H]1O` [ATPγS], the cryo-EM structure entry on Bcs1-ATPγS2-Rip1-FeS was “with all seven ATP-binding pockets exhibiting ATPγS density”. Also, the “cryo-EM structure; BN-PAGE shift” value on yBcs1 (Bcs1 heptamer) is given as “ATPγS density was observed in each of the seven protomers as well”.

B1: Bcs1 (yeast Bcs1 heptamer) (enzyme, S. cerevisiae, UniProt P32839 1-456, looked up)
chain: MSDKPIDIQYDKQATPNLSGVITPPTNETGNDSVREKLSKLVGDAMSNNPYFAAGGGLMILGTGLAVARSGIIKASRVLYRQMIVDLEIQSKDKSYAWFLTWMAKHPQRVSRHLSVRTNYIQHDNGSVSTKFSLVPGPGNHWIRYKGAFILIKRERSAKMIDIANGSPFETVTLTTLYRDKHLFDDILNEAKDIALKTTEGKTVIYTSFGPEWRKFGQPKAKRMLPSVILDSGIKEGILDDVYDFMKNGKWYSDRGIPYRRGYLLYGPPGSGKTSFIQALAGELDYNICILNLSENNLTDDRLNHLMNNMPERSILLLEDIDAAFNKRSQTGEQGFHSSVTFSGLLNALDGVTSSEETITFMTTNHPEKLDAAIMRPGRIDYKVFVGNATPYQVEKMFMKFYPGETDICKKFVNSVKELDITVSTAQLQGLFVMNKDAPHDALKMVSSLRNANHIF
notes: Bcs1, S. cerevisiae, YDR375C, residues 1-456 (coding region of the gene); N-terminal 6xHis-FLAG-3C tag; no cleavage with 3C protease is described for Bcs1; AAA ATPase that forms heptameric rings; also called yBcs1; bc1 synthesis 1
On to B1, for which, in data set [1], the “stoichiometry N” value was 7.
